Test results as given in patent US5811393A (The Childrens Medical Center Corp., priority 1993, dated 1998).
One block for each molecule: values may come before it.

Assays:
[1] = target: EGF receptor on bovine aortic smooth muscle cells (BASMC) (bovine)
[2] = cited from earlier work
[3] = tested on: bovine aortic smooth muscle cells (BASMC); test: Bovine aortic smooth muscle cell proliferation by cell counting; type: cell-based; conditions: cells counted after three days, 1% calf serum
Method: Bovine aortic smooth muscle cell proliferation was also assayed by counting cell number following growth factor stimulation. In these experiments, cells were plated sparsely in 24 well plates in DMEM/10% bovine calf serum/1% GPS (100% GPS is glutamine 29.2 mg/ml, penicillin 10,000 units/ml, streptomycin sulfate 10,000 μg/ml; GIBCO, Grand Island, N.Y.) at 10^4 cells/well. Test samples were then added and, after three days, cells were removed by trypsinization and counted in a Coulter counter (Coulter, Hialeah, Fla.).
BASMC were plated in DMEM, 10% calf serum, 100 U/ml penicillin, 100 μg/ml streptomycin sulfate at 5×10^3 cells/well in a 24 well plate, and, after attachment of the cells (e.g., following an overnight incubation), the media was replaced with DMEM, 1% calf serum, and penicillin and streptomycin as above. HB-EHM, recombinant human EGF (Creative Biomolecules, Hopkinton, Mass.), or recombinant PDGF (Creative Biomolecules, Hopkinton, Mass.) was then added to the wells. Cells were counted after three days.

EGF receptors on BASMC = test: Competitive [125I]EGF binding to bovine aortic smooth muscle cells; conditions: BASMC
Method: Competitive binding assays were used to measure this interaction and were performed as follows.

EGF receptor = EGF receptor autophosphorylation in A-431 cells (anti-phosphotyrosine Western blot); type: cell-based, human; conditions: 5 ng/ml, 15 minutes
Method: This was shown by plating A-431 cells in 6-well plates and culturing in Dulbecco's Modified Eagle's Medium (DMEM) containing 10% fetal bovine serum and antibiotics. […] After 15 minutes, the cells were washed with ice-cold phosphate-buffered saline containing 0.4 mm EDTA, 10 mM Na-fluorate, 10 mM Na-pyrophosphate and 0.4 mM Na-orthovanadate, scraped and lysed in 100 μl of PI/RIPA buffer [1% NP-40 (Pierce, Rockford, Ill.), 1% deoxycholate (Aldrich, Milwaukee, Wis.), 0.1% SDS, 1% aprotinin (Boehringer-Mannheim, Indianapolis, Ind.), 1 mM PMSF (Pierce), 2 mM EDTA (Sigma), 10 mM Na-fluorate, (Sigma, St. Louis, Mo.), 10 mM Na-pyrophosphate (Baker, Phillipsburg, N.J.), 0.4 mM Na-orthovanadate, (Aldrich), 10 mM iodoacetamide (Aldrich) in phosphate buffered saline]. Thirty μl of supernatant clarified by spinning for a 5 minute period in a microfuge was analyzed by reducing SDS/polyacrylamide gel electrophoresis (6% polyacrylamide gel). […] A standard of phosphorylated EGF receptor was purchased from UBI (Lake Placid, N.Y.).

[4] = target: EGF receptor on bovine aortic smooth muscle cells (BASMC) (bovine); remark: listed apart in the source
BALB/c mouse 3T3 cells = test: DNA synthesis ([3H]-thymidine incorporation) / proliferation of BALB/c mouse 3T3 cells; type: cell-based; conditions: E. coli-produced protein
Method: Conditioned medium was assayed for growth factor activity directly, as described below, using either fibroblasts (i.e., BALB/c mouse 3T3 cells), epithelial cells (i.e., human keratinocytes), or smooth muscle cells (i.e., bovine aortic smooth muscle cells, BASMC). Alternatively, CM was first fractionated by fast protein liquid chromatography (FPLC, Pharmacia, Piscataway, N.J.) by applying 500 ml of the CM to a TSK-heparin 5PW column (8×75 mm, TOSOHAAS, Philadelphia, Pa.). The column was washed with 10 column volumes of equilibration buffer (0.2M NaCl, 0.01M Tris-HCl, pH 7.5), and bound protein was eluted with a 40 ml linear gradient of 0.2-2M NaCl in 0.01M Tris-HCl , pH 7.4 at 1 ml/min. Fractions (2.5 ml) were tested for growth factor activity by measuring the effect of aliquots of the fractions on DNA synthesis in, or the proliferation of, BALB/c mouse 3T3 cells; such activity was monitored by assaying the incorporation of [^3 H]-thymidine into DNA and/or by measuring the increase in cell number. […] One unit of BALB/c mouse 3T3 stimulation activity was defined as the amount of growth factor required to stimulate half-maximal DNA synthesis in BALB/c mouse 3T3 cells under the conditions described in Shing et al. (supra).

Molecule: PDGF
NaCl concentration eluting from immobilized heparin columns ([2]; literature values): 0.5 M | increase in BASMC proliferation ([3]; 500 pg/ml): 2.5 fold

B2: recombinant HB-EHM: HB-EHM produced in E. coli from plasmid pNA28 as CAT fusion, cleaved, refolded and purified (protein)
chain: RVTLSSKPQALATPNKEEHGKRKKKGKGLGKKRDPCLRKYKDFCIHGECKYVKELRAPSCICHPGYHGERCHGLS
modifications: O-linked glycosylation (suggested by O-glycanase treatment; the threonines predicted at positions 2 and 12 of the form first sequenced were not detected in protein sequencing)
activity in the BALB/c 3T3 [3H]-thymidine uptake/incorporation assay (BALB/c mouse 3T3 cells): active

Continued, in another order:

BASMC proliferation (cell count after three days) (fold increase) [1]: 2.5
Molecule: recombinant human EGF (from UniProt P01133) (ligand)

IC50 (EGF receptors on BASMC; read-out: 50% inhibition of [125I]EGF binding, molar value in brackets): 0.048 nM
Molecule: EGF: epidermal growth factor, recombinant human, commercial comparator [reference compound]
50% inhibition of [125I]EGF binding (EGF receptors on BASMC; 6-well plates): 290 pg/mL | autophosphorylation of the EGF receptor (170 kDa protein) (EGF receptor): also phosphorylated | binding to heparin ([2]; conditions of the cited references): does not bind heparin to any substantial extent | increase in BASMC proliferation ([3]; 4 ng/ml): 2.5 fold

Maximal Stimulation (ng/ml), from 3H-thymidine incorporation into smooth muscle cell DNA, C4 RP-HPLC step [4]: 0.5 ng/mL | BASMC proliferation (cell count after three days) (fold increase) [1]: 2.5
B1: heparin binding EGF-homologous mitogen (HB-EHM), purified from U-937 conditioned medium, 33 minute peak form (ligand)
chain: B2 chain
modifications: O-linked glycosylation (suggested by O-glycanase treatment; the threonines predicted at positions 2 and 12 of the form first sequenced were not detected in protein sequencing)
